We go through eight compounds from patent US5480983A, “Adenosine derivatives, preparation methods and pharmaceutical compositions containing them” (Laboratoires UPSA, priority 1992, dated 1996).

The target of test [1] is T1, rat central A1 adenosinergic receptors (Rattus norvegicus, UniProt P25099).
T1 construct: After the animal has been sacrificed by decapitation, the brain is quickly removed and washed in cold isotonic solution; from tissue; host or cells: rat brain, membrane preparation from the two hemispheres
T1 sequence (P25099 1-326): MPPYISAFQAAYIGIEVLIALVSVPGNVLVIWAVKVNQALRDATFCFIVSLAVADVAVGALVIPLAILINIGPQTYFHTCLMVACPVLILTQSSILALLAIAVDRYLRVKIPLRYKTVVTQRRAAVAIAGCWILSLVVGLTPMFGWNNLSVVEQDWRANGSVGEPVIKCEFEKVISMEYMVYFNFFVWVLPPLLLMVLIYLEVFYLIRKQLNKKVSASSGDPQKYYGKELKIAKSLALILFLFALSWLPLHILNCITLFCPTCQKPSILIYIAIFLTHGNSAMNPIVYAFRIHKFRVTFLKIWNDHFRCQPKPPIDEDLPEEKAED
The test can be described thus: Binding to adenosine A1 receptors ([3H] PIA displacement). Particulars: [3H] PIA 2.5 nM, n=3; for inhibition at 10 µM: 1E-5M, read-out: % displacement of the labeled ligand, A1, 1E-5M; for inhibition at 0.1 µM: 1E-7M, read-out: % displacement of the labeled ligand, A1, 1E-7M. The procedure:
(§1) The affinity of the products of the Examples for the rat central A1 and A2 adenosinergic receptors is determined by the competitive technique using a radioactive ligand specifically bound either to the A1 receptors ([^3 H] PIA) or to the A2 receptors ([^3 H] NECA).
After the animal has been sacrificed by decapitation, the brain is quickly removed and washed in cold isotonic solution. The two hemispheres are separated and weighed and each of them is introduced into a polyallomer tube containing 25 volumes of cold homogenization buffer. Homogenization is effected using an Ultra-Turrax for 30 seconds (3 times 10 seconds with 10-second intervals, 70% of the maximum speed). The ground material obtained is centrifuged at 1000 g (≈3000 rpm) for 10 minutes at 4° C.
The supernatant is centrifuged again at 48,000 g (≈20,000 rpm) for 20 minutes at 4° C.
When this step is complete, the residue is taken up with 4 volumes of homogenization buffer, resuspended using a Vortex and homogenized with the Ultra-Turrax. Adenosine deaminase is then added at a rate of 1 U/ml, i.e. 1 μl/ml of homogenate, using a 10 μl Hamilton syringe.
After this treatment, the homogenate is shaken for 30 minutes at room temperature and then centrifuged at […] (≈20,000 rpm) for 30 minutes at 4° C.
The residue obtained is resuspended in 10 volumes of homogenization buffer and passed through the Ultra-Turrax for 20 seconds (2 times 10 seconds with a 10-second interval, 70% of the maximum speed).
The homogenate prepared in this way is used for the competitive tests. It is kept at 4° C. if the studies take place the same day, or stored at -20° C. in the form of 10 ml aliquots.
After the homogenate has been thawed at room temperature, it is passed through a Potter mill (6 manual to-and-fro movements, speed 6), diluted to 2/5 in incubation buffer and placed in a water bath thermostated at 4° C., with shaking, until the end of the experiment.
50 μl of [^3 H] PIA at 100 nM, i.e. 2.5 nM in the final reaction medium allowing for the 1/40 dilution, and 50 μl of the product of the Example at the concentrations considered ([…] and 10^-7 M) are introduced into the reaction tubes. The reaction is initiated by the addition of 1 ml of homogenate and 900 μl of incubation buffer. The procedure is identical for all the […] studied.
The tubes are shaken and incubated in a water bath at 20° C. for 30 minutes. When the incubation is complete, the contents of the tubes are filtered on Whatman GF/B paper. Each tube is washed twice with 2 ml of rinsing buffer and then the filters themselves are rinsed with 3 ml of this same buffer.
The filters are then transferred to counting flasks and 10 ml of liquid scintillator (Ready Solv HP/b, Beckman) are added.
After they have been shaken, the flasks are stored in a refrigerator overnight and the radio-activity is then determined in a liquid scintillation counter.
3 tests are performed for each concentration studied. The non-specific binding of the [^3 H] PIA is assessed by measuring the amount of radioactivity retained on the filter in the presence of 10^-5 M phenylisopropyladenosine (PIA). The value of the non-specific binding is systematically subtracted from that of the tests.
(§2) The results are expressed for each product in the form of the percentage displacement (n=3) of the labeled radioligand at concentrations of 10^-5 M and 10^-7 M.

Test [2] can be described thus: Phenylbenzoquinone test (analgesic activity). In kind it is in vivo. The conditions noted are these: Mus musculus, 1 h; mice; oral, one hour before phenylbenzoquinone i.p.; 5 minutes observation; read-out: Phenylbenzoquinone test 50% inhibitory dose. Here is the method: 2. Phenylbenzoquinone test
The intraperitoneal injection of phenylbenzoquinone causes twisting and stretching movements in mice. Analgesics prevent or reduce this syndrome, which can be considered as the exteriorization of diffuse abdominal pain.
A 0.02% solution of phenylbenzoquinone in water is administered in a volume of 1 ml/100 g.
The products of the Examples are administered orally one hour before the injection of phenylbenzoquinone.
The stretching and twisting movements are counted for each mouse over an observation period of 5 minutes.

Test [3] addresses T2, rat central A2 adenosinergic receptors (Rattus norvegicus, UniProt P30543).
T2 construct: the striatum is removed from each of them (Bruns et al., 1986); from tissue; host or cells: rat striatum, homogenate (membrane preparation)
The test can be described thus: Binding to adenosine A2 receptors ([3H] NECA displacement). Particulars: [3H] NECA 4 nM, n=3; for inhibition at 10 µM: 1E-5M, read-out: % displacement of the labeled ligand, A2, 1E-5M; for inhibition at 0.1 µM: 1E-7M, read-out: % displacement of the labeled ligand, A2, 1E-7M. Here is the method: as §1
Method of studying the A2 receptors Membrane preparation
After decapitation of the animal, the brain is quickly removed and washed in cold isotonic solution. The two hemispheres are separated and the striatum is removed from each of them (Bruns et al., 1986), weighed and introduced into a polyallomer tube containing 10 volumes of cold homogenization buffer. The tissue is homogenized with an Ultra-Turrax for 30 seconds (3 times 10 seconds with 10-second intervals, 70% of the maximum speed). The ground material is centrifuged at 50,000 g (≈20,500 rpm) for 10 minutes at 4° C.
The residue obtained is resuspended in 10 volumes of homogenization buffer using a Vortex and homogenized with the Ultra-Turrax (5 to 10 seconds, 70% of the maximum speed).
Adenosine deaminase is then added at a rate of 1 U/ml, i.e. 1 μl/ml of homogenate, using a 10 μl Hamilton syringe. The homogenate treated in this way is shaken at room temperature for 30 minutes.
When the incubation is complete, the homogenate is centrifuged at 50,000 g (≈20,500 rpm) for 10 minutes at 4° C.
The residue is taken up with 5 volumes of cold homogenization buffer and passed through the Ultra-Turrax (2 times 10 seconds with a 10-second interval, 70% of the maximum speed) and the homogenate prepared in this way is finally frozen at -70° C. Competitive test
After the homogenate has been thawed at room temperature, 15 volumes of incubation buffer are added. The homogenate is shaken on a Vortex, passed through a Potter mill (6 to-and-fro movements, speed 6), diluted to 1/10 in incubation buffer and finally placed in a water bath thermostated at 4° C., with shaking, until the end of the experiment.
50 μl of [^3 H] NECA at 160 nM, i.e. 4 nM in the final reaction medium allowing for the 1/40 dilution, and 50 μl of the product of the Example at the concentrations considered (10^-5 M and 10^-7 M) are introduced into the reaction tubes. The reaction is initiated by the addition of 1 ml of homogenate and 900 μl of incubation buffer. The procedure is similar for all the compounds studied.
The tubes are shaken and incubated in a water bath at 25° C. for 60 minutes. When the incubation is complete, the contents of the tubes are filtered on Whatman GF/B paper. Each tube is washed twice with 2 ml of rinsing buffer and then the filters themselves are rinsed with 3 ml of this same buffer before being transferred to counting flasks.
10 ml of liquid scintillator (Ready Solv HP/b, Beckman) are added to all the flasks. These are shaken and stored in a refrigerator overnight. The radioactivity is determined in a liquid scintillation counter.
3 tests are performed for each concentration studied. The non-specific binding of the [^3 H] NECA is determined by measuring the amount of radioactivity retained on the filter in the presence of 5 μM N-ethylcarboxamidoadenosine (NECA). The value of the non-specific binding is systematically subtracted from that of the tests.
as §2

T2 sequence (P30543 whole entry): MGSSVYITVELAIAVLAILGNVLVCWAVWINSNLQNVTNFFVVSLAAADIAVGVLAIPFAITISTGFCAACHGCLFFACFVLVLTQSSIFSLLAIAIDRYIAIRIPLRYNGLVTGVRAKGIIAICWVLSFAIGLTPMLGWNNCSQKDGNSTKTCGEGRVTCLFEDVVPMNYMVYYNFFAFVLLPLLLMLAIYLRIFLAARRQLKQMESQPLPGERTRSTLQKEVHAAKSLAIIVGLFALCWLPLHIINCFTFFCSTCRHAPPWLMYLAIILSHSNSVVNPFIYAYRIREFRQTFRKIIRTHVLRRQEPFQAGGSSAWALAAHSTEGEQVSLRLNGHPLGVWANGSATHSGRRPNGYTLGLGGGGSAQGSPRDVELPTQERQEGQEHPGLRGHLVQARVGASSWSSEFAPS

For `Cc1ccc(Cn2cc(CCNc3ncnc4c3ncn4[C@@H]3O[C@H](C(=O)NC4CC4)[C@@H](O)[C@H]3O)c3ccccc32)cc1C` [Example 67, β-D-Ribofuranuronamido-N-cyclopropyl-1-deoxy-1-[6-[[2-[1-(3,4-dimethylbenzyl)indol-3-yl]ethyl]amino]-9H-purin-9-yl]], in test [1], the inhibition at 10 µM was determined as 96% and the inhibition at 0.1 µM came out at 29%. Further, in test [2], the ED50 came out at 3 mg/kg. In test [3], the inhibition at 10 µM worked out at 83% and the inhibition at 0.1 µM is 13%.
Taken in the same sequence, the figures for `Cc1ccc(C)c(Cn2cc(CCNc3ncnc4c3ncn4[C@@H]3O[C@H](C(=O)NC4CC4)[C@@H](O)[C@H]3O)c3ccccc32)c1` [Example 68, β-D-Ribofuranuronamido-N-cyclopropyl-1-deoxy-1-[6-[[2-[1-(2,5-dimethylbenzyl)indol-3-yl]ethyl]amino]-9H-purin-9-yl]] were 93%, 26%, 2.4 mg/kg, 84% and 9%.
The corresponding values for `O=C(NC1CC1)[C@H]1O[C@@H](n2cnc3c(NCCc4cn(CCN5CCCCC5)c5ccccc45)ncnc32)[C@H](O)[C@@H]1O` [Example 71 (citrate), β-D-ribofuranuronamido-N-cyclopropyl-1-deoxy-1-[6-[[2-[1-(2-N-piperidinoethyl)indol-3-yl]ethyl]amino]-9H-purin-9-yl]citrate] are 99%, 91%, 7.3 mg/kg, 96% and 44%.
The corresponding values for `Cc1ccc(C)c(Cn2cc(CCNc3ncnc4c3ncn4[C@@H]3O[C@H](C(=O)NC4CC4)[C@@H](O)[C@H]3O)c3cc(C)ccc32)c1` [Example 85, β-D-Ribofuranuronamido-N-cyclopropyl-1-deoxy-1-[6-[[2-[1-(2,5-dimethylbenzyl)-5-methylindol-3-yl]ethyl]amino]-9H-purin-9-yl]] are 100%, 50%, 0.9 mg/kg, 71% and 3%.
`COc1ccc2c(c1)c(CCNc1ncnc3c1ncn3[C@@H]1O[C@H](C(=O)NC3CC3)[C@@H](O)[C@H]1O)cn2Cc1cc(C)ccc1C` [Example 86, β-D-Ribofuranuronamido-N-cyclopropyl-1-deoxy-1-[6-[[2-[1-(2,5-dimethylbenzyl)-5-methoxyindol-3-yl]ethyl]amino]-9H-purin-9-yl]]: in test [1], the inhibition at 10 µM was found to be 100% and the inhibition at 0.1 µM was 16%. In addition, the ED50 in test [2] was about 60 mg/kg. In test [3], the inhibition at 10 µM came to 91% and the inhibition at 0.1 µM came to 17%.
The corresponding values for `Cc1ccc(C)c(Cn2c(C)c(CCNc3ncnc4c3ncn4[C@@H]3O[C@H](C(=O)NC4CC4)[C@@H](O)[C@H]3O)c3ccccc32)c1` [Example 87, β-D-Ribofuranuronamido-N-cyclopropyl-1-deoxy-1-[6-[[2-[1-(2,5-dimethylbenzyl)-2-methylindol-3-yl]ethyl]amino]-9H-purin-9-yl]] are 56%, 5%, 1.2 mg/kg, 60% and 7%.
Taken in the same sequence, the figures for `Cc1ccc(C)c(Cn2cc(CC(C)Nc3ncnc4c3ncn4[C@@H]3O[C@H](C(=O)NC4CC4)[C@@H](O)[C@H]3O)c3ccccc32)c1` (stereo partly drawn) [Example 92, β-D-Ribofuranuronamido-N-cyclopropyl-1-deoxy-1-[6-[[1-[1-(2,5-dimethylbenzyl)indol-3-yl]propan-2-yl]amino]-9H-purin-9-yl]] were 96%, 21%, 3.6 mg/kg, 84% and 9%.
Taken in the same sequence, the figures for `CC(Cc1cn(C2CCCC2)c2ccccc12)Nc1ncnc2c1ncn2[C@@H]1O[C@H](C(=O)NC2CC2)[C@@H](O)[C@H]1O` (stereo partly drawn) [Example 93, β-D-Ribofuranuronamido-N-cyclopropyl-1-deoxy-1-[6-[[1-[1-cyclopentylindol-3-yl]-propan-2-yl]amino]-9H-purin-9-yl]] were 96%, 45%, 2 mg/kg, 85% and 22%.
